In one data set the target is A2A receptor (Homo sapiens, UniProt P29274). The experiment in a line: Inhibition of cAMP production in HEK cells. It counts as cell-based. Conditions: HEK-293 cells with A2A receptor.
A further data set in a line: in vitro. Conditions: human, Caco-2, pH 7.4.
[1] abbreviates: IC50 (nM) (3 nM NECA as agonist, 0.1% BSA), 3 nM NECA as agonist, 0.1% BSA.
Setting [2] is: IC50 (nM) (5 μM Adenosine as agonist, 2.0% HSA), 5 μM Adenosine as agonist, 2.0% HSA.

Chain of A2A receptor (P29274 whole entry): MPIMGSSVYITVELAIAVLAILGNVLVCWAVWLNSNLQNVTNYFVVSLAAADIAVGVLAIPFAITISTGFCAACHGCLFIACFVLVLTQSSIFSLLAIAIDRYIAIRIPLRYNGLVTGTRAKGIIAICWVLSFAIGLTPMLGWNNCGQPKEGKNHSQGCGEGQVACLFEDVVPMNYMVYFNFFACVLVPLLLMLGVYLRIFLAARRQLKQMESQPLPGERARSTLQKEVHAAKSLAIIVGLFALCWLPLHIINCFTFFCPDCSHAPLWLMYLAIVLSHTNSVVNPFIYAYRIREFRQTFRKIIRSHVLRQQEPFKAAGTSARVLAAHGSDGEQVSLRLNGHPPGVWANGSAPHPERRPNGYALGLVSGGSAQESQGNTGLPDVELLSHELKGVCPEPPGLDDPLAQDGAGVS
Protocol for in vitro: 2 μM dosing solutions for reference compounds and test compounds are prepared by spiking the appropriate volume of intermediate solution to TB with and without 1 μM Zosuquidar. The final concentration of DMSO is no more than 1% (v/v).
Caco-2 cells are grown in MEM supplemented with 2 mM L-glutamine, 10% FBS, 100 U/mL penicillin-G and 100 μg/mL streptomycin. The cells are incubated at 37° C., 5% CO2 and relatively saturated humidity. After reaching 80-90% confluency, the cells are gently detached with 0.05% trypsin-EDTA solution.
TB and dosing solutions were pre-warmed to 37° C. before transport assay. The cell monolayer was washed twice with HBSS containing 10 mM HEPES. For A-B (apical to basolateral) directional transport assay, 75 μL dosing solution is added to the apical well. Fill each basolateral well with 250 μL TB. For B-A (basolateral to apical) directional transport assay, 250 μL of dosing solution is added to the basolateral well after filling each apical well with 75 μL TB. […] The plates are incubated for 120 minutes at 37° C. with 5% CO2 and saturated humidity. The time zero samples are generated by mixing 50 μL initial dosing solution of test compound or reference compound with 100 μL TB and 250 μL quench solution (acetonitrile (ACN) or other appropriate solvent with internal standard(s), based on the bioanalytical method development). At 120 minutes, 150 μL of solution is collected from each A-B receiver well followed by addition of 250 μL quench solution to get A-B receiver sample. And for other samples (A-B donor, B-A donor and receiver), 50 μL of solution is collected from each corresponding well followed by addition of 250 μL quench solution and 100 μL TB. All samples are vortex-mixed and centrifuged at 3220 g for 20 minutes. Subsequently, supernatant is diluted with ultra pure water for LC-MS/MS analysis. The concentrations of test compound in all samples are determined by LC-MS/MS and expressed as peak area ratio of analyte to internal standard.
The concentration of samples is expressed using the peak area ratio of Analyte to Internal Standard (Analyte/IS).
The efflux ratio is calculated using the following equation: Efflux ratio=Papp(A−B)/Papp(B−A) • where Papp (A−B) and Papp (B−A) are the Papp values of compound in Apical to Basolateral and Basolateral to Apical directional transport, respectively.

As for `Nc1nc2c(sc(=O)n2CCN2CCN(c3ccc(O[C@@H]4CNC[C@H]4F)cc3F)CC2)c2nc(-c3ccco3)nn12` [Compound 101, 5-amino-3-(2-(4-(2-fluoro-4-(((3R,4R)-4-fluoropyrrolidin-3-yl)oxy)phenyl)piperazin-1-yl)ethyl)-8-(furan-2-yl)thiazolo[5,4-e][1,2,4]triazolo[1,5-c]pyrimidin-2(3H)-one], the results for the IC50 at A2A receptor (setting [1]) and on A2A receptor (setting [2]) were 0.7 nM and 124 nM, respectively. The efflux ratio (as a rule, a quotient of directional permeabilities that is used to spot active efflux) at 120 min, 2 μM in the data set “in vitro” was 81.
For the molecule `Nc1nc2c(sc(=O)n2CCN2CCN(c3ccc(O[C@H]4CNC[C@@H]4F)cc3F)CC2)c2nc(-c3ccco3)nn12` [Compound 102, 5-amino-3-(2-(4-(2-fluoro-4-(((3S,4S)-4-fluoropyrrolidin-3-yl)oxy)phenyl)piperazin-1-yl)ethyl)-8-(furan-2-yl)thiazolo[5,4-e][1,2,4]triazolo[1,5-c]pyrimidin-2(3H)-one], the half-maximal inhibitory concentration (IC50) (as a rule, the point on the concentration scale where inhibition reaches its midpoint) on A2A receptor (setting [1]) is 0.7 nM; at A2A receptor (setting [2]) it was 185 nM. Also, the efflux ratio at 120 min, 2 μM in the data set “in vitro” was 91.
Regarding `Nc1nc2c(sc(=O)n2CCN2CCN(c3ccc(O[C@@H]4CNC[C@@H]4F)cc3F)CC2)c2nc(-c3ccco3)nn12` [Compound 103, 5-amino-3-(2-(4-(2-fluoro-4-(((3R,4S)-4-fluoropyrrolidin-3-yl)oxy)phenyl)piperazin-1-yl)ethyl)-8-(furan-2-yl)thiazolo[5,4-e][1,2,4]triazolo[1,5-c]pyrimidin-2(3H)-one], the half-inhibitory concentration (IC50) on A2A receptor (setting [1]) worked out at 1.1 nM. Also, the efflux ratio at 120 min, 2 μM in “in vitro” turned out to be 20.
As to `Nc1nc2c(sc(=O)n2CCN2CCN(c3ccc(O[C@H]4CNC[C@H]4F)cc3F)CC2)c2nc(-c3ccco3)nn12` [Compound 104, 5-amino-3-(2-(4-(2-fluoro-4-(((3S,4R)-4-fluoropyrrolidin-3-yl)oxy)phenyl)piperazin-1-yl)ethyl)-8-(furan-2-yl)thiazolo[5,4-e][1,2,4]triazolo[1,5-c]pyrimidin-2(3H)-one], the IC50 on A2A receptor (setting [1]) amounted to 0.5 nM; at A2A receptor (setting [2]), 45 nM. Further, the efflux ratio at 120 min, 2 μM in “in vitro” was 20.
In the case of `Nc1nc2c(sc(=O)n2CCN2CCN(c3ccc(C(=O)NCC4COCCN4)cc3F)CC2)c2nc(-c3ccco3)nn12` (centres unmarked) [Compound 107, 4-(4-(2-(5-amino-8-(furan-2-yl)-2-oxothiazolo[5,4-e][1,2,4]triazolo[1,5-c]pyrimidin-3(2H)-yl)ethyl)piperazin-1-yl)-3-fluoro-N-(morpholin-3-ylmethyl)benzamide], the IC50 on A2A receptor (setting [1]) was found to be 0.1 nM; on A2A receptor (setting [2]), 35 nM. Moreover, in “in vitro”, the efflux ratio at 120 min, 2 μM came to 680.
On the same counts, the results for `Nc1nc2c(sc(=O)n2CCN2CCN(c3ccc(OC4CNC4)cc3)CC2)c2nc(-c3ccco3)nn12` [Compound 108, 5-amino-3-(2-(4-(4-(azetidin-3-yloxy)phenyl)piperazin-1-yl)ethyl)-8-(furan-2-yl)thiazolo[5,4-e][1,2,4]triazolo[1,5-c]pyrimidin-2(3H)-one] are 0.7 nM, 172 nM and 191.
As to `Nc1nc2c(sc(=O)n2CCN2CCN(c3cc(O[C@H]4CC[S@@+]([O-])CC4)c(F)cc3F)CC2)c2nc(-c3ccco3)nn12` [Compound 111, 5-amino-3-(2-(4-(2,4-difluoro-5-(((1s,4s)-1-oxidotetrahydro-2H-thiopyran-4-yl)oxy)phenyl)piperazin-1-yl)ethyl)-8-(furan-2-yl)thiazolo[5,4-e][1,2,4]triazolo[1,5-c]pyrimidin-2(3H)-one], the IC50 came out at 0.6 nM at A2A receptor (setting [1]) and 91 nM on A2A receptor (setting [2]). Also, in the data set “in vitro”, the efflux ratio at 120 min, 2 μM came out at 583.
The matching figures for `Nc1nc2c(sc(=O)n2CCN2CCN(c3cc(O[C@H]4CC[S@+]([O-])CC4)c(F)cc3F)CC2)c2nc(-c3ccco3)nn12` [Compound 112, 5-amino-3-(2-(4-(2,4-difluoro-5-(((1r,4r)-1-oxidotetrahydro-2H-thiopyran-4-yl)oxy)phenyl)piperazin-1-yl)ethyl)-8-(furan-2-yl)thiazolo[5,4-e][1,2,4]triazolo[1,5-c]pyrimidin-2(3H)-one]: 0.8 nM, 53 nM and 605.
On the same counts, the results for `C[S@+]([O-])CCNC(=O)c1cc(N2CCN(CCn3c(=O)sc4c3nc(N)n3nc(-c5ccco5)nc43)CC2)c(F)cc1F` [Compound 113, (S)-5-(4-(2-(5-amino-8-(furan-2-yl)-2-oxothiazolo[5,4-e][1,2,4]triazolo[1,5-c]pyrimidin-3(2H)-yl)ethyl)piperazin-1-yl)-2,4-difluoro-N-(2-(methylsulfinyl)ethyl)benzamide] are 0.4 nM, 37 nM and 374.
On the same counts, the results for `C[S@@+]([O-])CCNC(=O)c1cc(N2CCN(CCn3c(=O)sc4c3nc(N)n3nc(-c5ccco5)nc43)CC2)c(F)cc1F` [Compound 114, (R)-5-(4-(2-(5-amino-8-(furan-2-yl)-2-oxothiazolo[5,4-e][1,2,4]triazolo[1,5-c]pyrimidin-3(2H)-yl)ethyl)piperazin-1-yl)-2,4-difluoro-N-(2-(methylsulfinyl)ethyl)benzamide] are 0.3 nM, 80 nM and 403.
As for `CN(CC[S@@+](C)[O-])C(=O)c1cc(N2CCN(CCn3c(=O)sc4c3nc(N)n3nc(-c5ccco5)nc43)CC2)c(F)cc1F` [Compound 116, (R)-5-(4-(2-(5-amino-8-(furan-2-yl)-2-oxothiazolo[5,4-e][1,2,4]triazolo[1,5-c]pyrimidin-3(2H)-yl)ethyl)piperazin-1-yl)-2,4-difluoro-N-methyl-N-(2-(methylsulfinyl)ethyl)benzamide], the results for the IC50 on A2A receptor (setting [1]) and on A2A receptor (setting [2]) were 1.2 nM and 245 nM, respectively. The efflux ratio at 120 min, 2 μM in the data set “in vitro” came out at 421.
As for `Nc1nc2c(sc(=O)n2CCN2CCN(c3cc(C(=O)N4CC[S+]([O-])CC4)c(F)cc3F)CC2)c2nc(-c3ccco3)nn12` [Compound 117, 5-amino-3-(2-(4-(2,4-difluoro-5-(1-oxidothiomorpholine-4-carbonyl)phenyl)piperazin-1-yl)ethyl)-8-(furan-2-yl)thiazolo[5,4-e][1,2,4]triazolo[1,5-c]pyrimidin-2(3H)-one], the results for the IC50 on A2A receptor (setting [1]) and at A2A receptor (setting [2]) were 329 nM and 3160 nM, respectively. In addition, the efflux ratio at 120 min, 2 μM in “in vitro” amounted to 12.
With `C[S@+]([O-])CCNC(=O)c1ccc(N2CCN(CCn3c(=O)sc4c3nc(N)n3nc(-c5ccco5)nc43)CC2)c(F)c1` [Compound 123, (S)-4-(4-(2-(5-amino-8-(furan-2-yl)-2-oxothiazolo[5,4-e][1,2,4]triazolo[1,5-c]pyrimidin-3(2H)-yl)ethyl)piperazin-1-yl)-3-fluoro-N-(2-(methylsulfinyl)ethyl)benzamide], the figures for the 50% inhibitory concentration (IC50) on A2A receptor (setting [1]) and on A2A receptor (setting [2]) were 1.5 nM and 1440 nM, respectively. Moreover, the efflux ratio at 120 min, 2 μM in “in vitro” stood at 120.
On the same counts, the results for `C[S@@+]([O-])CCNC(=O)c1ccc(N2CCN(CCn3c(=O)sc4c3nc(N)n3nc(-c5ccco5)nc43)CC2)c(F)c1` [Compound 124, (R)-4-(4-(2-(5-amino-8-(furan-2-yl)-2-oxothiazolo[5,4-e][1,2,4]triazolo[1,5-c]pyrimidin-3(2H)-yl)ethyl)piperazin-1-yl)-3-fluoro-N-(2-(methylsulfinyl)ethyl)benzamide] are 2.3 nM, 2040 nM and 54.

The record behind these values is patent US10995101B2, “2-oxo-thiazole derivatives as A2A inhibitors and compounds for use in the treatment of cancers” (iTeos Therapeutics SA, priority 2017, dated 2021).
